Experimental data: patent US6555499B1, “Herbicide agent” (Syngenta Crop Protection, Inc., priority 1999, dated 2003)

Experiments:
Apera = experiment: Post-emergence test, Example B1: Apera; type: in vivo; details: greenhouse, herbicide 25 g/ha, where combined cloquintocet-mexyl 6.25 g/ha, MERGE 1% by weight of spray mixture, evaluated after 2 to 4 weeks, 100%=complete destruction
Excerpt: (§1) A standard soil is used as cultivation substrate.
(§2) The rate of application of herbicide is in each case 25 g/ha; the rate of application of cloquintocet-mexyl is 6.25 g/ha. As oil additive, MERGE® is used in a concentration of 1% by weight of the spray mixture.

Alopecurus = experiment: Post-emergence test, Example B1: Alopecurus; type: in vivo; details: greenhouse, herbicide 25 g/ha, where combined cloquintocet-mexyl 6.25 g/ha, MERGE 1% by weight of spray mixture, evaluated after 2 to 4 weeks, 100%=complete destruction
Excerpt: as §1, §2

Avena = experiment: Post-emergence test, Example B1: Avena; type: in vivo; details: greenhouse, herbicide 25 g/ha, where combined cloquintocet-mexyl 6.25 g/ha, MERGE 1% by weight of spray mixture, evaluated after 2 to 4 weeks, 100%=complete destruction
Excerpt: as §1, §2

weeds = experiment: Post-emergence test, Example B1: weeds overall, in words; type: in vivo, Apera, Alopecurus, Avena; details: herbicide 25 g/ha, where combined cloquintocet-mexyl 6.25 g/ha, MERGE 1%
Excerpt: as §1, §2

| SMILES | Herbicidal action on Apera (Apera) [%] | Herbicidal action on Alopecurus (Alopecurus) [%] | Herbicidal action on Avena (Avena) [%] | Herbicidal action on the weeds (in words) (weeds) |
| --- | --- | --- | --- | --- |
| CCc1cc(C)cc(CC)c1C1C(=O)N2CCOCCN2C1=O [compound no. 1.007] | 60 | 10 | 10 | only slight to moderate herbicidal action |
| CCc1cc(C)cc(CC)c1-c1c(OC(=O)C(C)(C)C)n2n(c1=O)CCOCC2 [compound no. 1.008] | 25 | 20 | 20 | only slight to moderate herbicidal action |
